Columns and labels:
OXRs = experiment: Mouse PET-CT blocking study of [^11C]CW24 uptake; type: in vivo, mice
Description: (§1) Animals were anesthetized with 1–1.5% isoflurane and maintained with isoflurane during the imaging scan. In a single imaging session, mice were arranged in a Triumph PET/CT scanner (Gamma Medica, Northridge, CA). […] Animals underwent a 60 min dynamic PET scan followed by computed tomography (CT).
(§2) PET data were reconstructed using a 3D-MLEM method resulting in a full width at half-maximum resolution of 1 mm. PET and CT images in DICOM format were imported to PMOD (PMOD Technologies, Ltd. Zürich, Switzerland) and co-registered to the brain atlas. Volumes of interest (VOIs) were drawn as spheres in brain regions guided by CT structural images and summed PET data. Time-activity curves (TACs) were exported as activity per unit volume (%ID/cc) for analysis.

[1] = target: T1, human recombinant orexin OX1 receptors (Homo sapiens, UniProt O43613); experiment: Human Orexin GPCR Binding (Agonist Radioligand) Assay, [125I] Orexin A competition; conditions: radioligand competition binding assay; read-out: IC50 (nM) OXR1
T1 construct: host or cells: CHO-S cells
T1 sequence (O43613 1-425): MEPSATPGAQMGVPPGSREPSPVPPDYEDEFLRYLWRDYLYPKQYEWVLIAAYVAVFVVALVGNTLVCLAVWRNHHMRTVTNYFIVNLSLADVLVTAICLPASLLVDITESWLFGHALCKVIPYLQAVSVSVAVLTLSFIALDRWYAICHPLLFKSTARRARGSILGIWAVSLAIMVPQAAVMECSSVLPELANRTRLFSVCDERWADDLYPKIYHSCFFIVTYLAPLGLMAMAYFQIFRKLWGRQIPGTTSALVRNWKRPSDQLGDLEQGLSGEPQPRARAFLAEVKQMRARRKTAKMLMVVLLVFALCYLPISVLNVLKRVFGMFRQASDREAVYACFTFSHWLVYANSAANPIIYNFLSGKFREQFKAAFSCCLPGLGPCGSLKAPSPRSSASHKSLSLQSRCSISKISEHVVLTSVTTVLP
Description: (§3) Radioligand competition binding assays were performed by Panlabs, Eurofins Pharma Discovery Services. Briefly, human recombinant orexin OX1 receptors expressed in CHO-S cells were used in modified HEPES buffer pH 7.4. […] Orexin A for 60 minutes at 25 °C. […] Orexin A specifically binding. Human recombinant OX2 receptors were used in modified HEPES buffer pH 7.4. […] Orexin A for 180 minutes at 25 °C. […] Orexin A specifically bound.

[2] = target: T2, Human recombinant OX2 receptors (Homo sapiens, UniProt O43614); experiment: as above; conditions: radioligand competition binding assay; read-out: IC50 (nM) OXR2
T2 sequence (O43614 1-444): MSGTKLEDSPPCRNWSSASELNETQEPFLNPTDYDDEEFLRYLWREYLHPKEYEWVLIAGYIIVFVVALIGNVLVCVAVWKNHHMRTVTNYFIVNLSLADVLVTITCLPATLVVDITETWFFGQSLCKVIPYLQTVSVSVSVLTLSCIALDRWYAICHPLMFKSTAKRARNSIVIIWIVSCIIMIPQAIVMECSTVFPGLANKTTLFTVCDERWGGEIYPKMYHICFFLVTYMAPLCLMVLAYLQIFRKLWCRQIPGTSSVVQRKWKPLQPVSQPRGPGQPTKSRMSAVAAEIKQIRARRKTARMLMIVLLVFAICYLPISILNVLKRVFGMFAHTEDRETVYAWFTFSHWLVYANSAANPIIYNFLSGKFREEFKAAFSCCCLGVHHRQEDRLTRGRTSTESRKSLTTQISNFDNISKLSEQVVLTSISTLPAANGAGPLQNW
Description: as §3

[3] = Mouse PET-CT imaging, brain uptake; type: in vivo; conditions: mice, i.v., baseline
Description: as §1, §2

[4] = Plasma and metabolite analysis; type: in vivo, rhesus macaque; conditions: macaque arterial plasma, at 30 min
Description: Briefly, arterial blood samples collected (every 10 s at first 3 min post-administration of [^11C]CW24, then 5 min, 10 min, 20 min, 30 min, 45 min, 60 min, and 90 min) during macaque imaging were centrifuged to separate plasma, which was then removed and placed in an automated gamma counter. Metabolite analysis of blood samples collected from 5 to 90 min was conducted on a custom automated robot fitted with Phenomenex SPE Strata-X 500 mg solid phase extraction cartridges that were primed with ethanol (2 mL) and deionized water (20 mL). Protein precipitation was achieved by the addition of plasma (300 μL) to acetonitrile (300 μL), which was centrifuged for 1 min to obtain protein-free plasma (PFP). Three hundred microliters of PFP/acetonitrile solution was diluted into deionized water (3 mL), loaded onto the C18 cartridge, and removed of polar metabolites with 100% water. Next, a series of extractions was performed using water and acetonitrile. Each sample was counted in a WIZARD2 Automatic Gamma Counter to determine the presence of radiolabeled metabolites.

[5] = Macaque PET-MR imaging and Logan plot kinetic modeling; type: in vivo, rhesus macaque; conditions: all brain regions examined
Description: A male rhesus macaque (14.4 kg) was included in this study. After endotracheal intubation, the macaque was catheterized antecubitally for radiotracer injection and a radial arterial line was placed for arterial blood sampling and radiometabolite analysis. The animal was anesthetized with 1.2–1.3% Isoflurane in medical oxygen throughout the imaging session. PET-MR data was acquired on a 3T Siemens MRI scanner (Munich, Germany) with a BrainPET insert. A baseline and a blocking scan were performed on the same animal. Dynamic PET image acquisition was initiated followed by a bolus administration of [^11C]CW24 (179 MBq for the baseline scan and 192 MBq for the blocking scan). To characterize the specific binding of [^11C]CW24, a blocking study was carried out in which 2.0 mg/kg IPSU (1.0 % DMSO + 1.0 % Tween 80 + 98.0 % saline to make a solution of 1.0 mg/mL) was administered 5 min prior the acquisition. A T1-weighting multi-echo magnetization-prepared rapid gradient-echo ([…]) sequence began as the PET scan for anatomic co-registration. […]
Motion-corrected PET data were registered to the INIA19 macaque MRI Template. […] With the availability of a metabolite-corrected arterial plasma data, the regional volume of distribution (VT) was calculated using Logan Plot analysis (with a fixed t* of 40 min).

OX2R = OX2R vs OX1R; cited from earlier work

COc1ccnc(N2CCC3(CCCN(Cc4c[nH]c5ccccc45)C3=O)CC2)n1 [IPSU, reference compound]
reduction in [^11C]CW24 uptake (OXRs; mice brain, 0.5 mg/kg IPSU i.v. 5 min pretreatment, 30–60 mins post-injection): Approximately 10% | reduction in [^11C]CW24 uptake (OXRs; mice brain, 2.0 mg/kg IPSU i.v. 5 min pretreatment): approximately 50% | IC50 [1]: 1090 nM | IC50 [2]: 3130 nM

Cc1ccc(-n2nccn2)c(C(=O)N2CCN(c3nc4cc(Cl)ccc4o3)CC[C@H]2C)c1 [Suvorexant]
reduction in [^11C]CW24 uptake (OXRs; mouse brain, Suvorexant 5.0 mg/kg i.v., 30–60 mins post-injection): approximately 50%

COc1ccnc(N2CCC3(CCCN(Cc4cn([11CH3])c5ccccc45)C3=O)CC2)n1 [[^11C]CW24]
brain uptake %ID/cc at Cmax [3]: 3.5 %ID/cc | parent compound in plasma [4]: ~ 47% | peak standard uptake value (SUV) [5]: 1.5–3.0

orexin-B: orexin peptide with 28 amino acids
higher affinity for OX2R compared with OX1R (OX2R): 10 fold

— article PMC7179119, “A New Positron Emission Tomography Probe for Orexin Receptors Neuroimaging” (Molecules, 2020)
